These results are taken from patent publication US20050153938A1, “Polyphosphonate derivatives for toothpaste compositions” (Universite D'Angers, priority 2002, published 2005).

Each structure is given as a SMILES string.

Experiment [1] can be described thus: Tests of efficiency of polyphosphonate compounds for preventing bonding of proteins. As to conditions: compared with diphosphonic esters, sulfonates, phosphates, carboxylates and diphosphates. As to the method:
One particular difficulty lies in identification of compounds with a particularly efficient behaviour for the required application.
This TMADP compound has been synthesised in a single step using hydroxyethylidene biphosphonic acid (HEDP) and glycidyltrimethylammonium chloride. The reaction was done in DMSO previously conserved on a molecular sieve. After dissolution of HEDP (2 g; 14.5×10^−3 mol) at 50° C. in 30 ml of DMSO, the epoxyde (2.2 g; 14.5×10^−3 mol) is added and the temperature is increased to 110° C. for 24 hours. The DMSO is then evaporated at low pressure and the raw product is dissolved in a minimum amount of distilled water. The TMADP product is then chromatographed on a cation exchanger resin (DOWEX 50WX8-20/50 Mesh, H+form). The column is eluted with distilled water and the pure product is collected at a pH of between 3.0 and 3.5.

A short description of experiment [2]: Model of protection of a stainless steel plate against bonding of proteins. The text has this: A sufficient coverage quantity of TMADP molecules on this model is […] per nm^2 of plaque surface area.

For `C[N+](C)(C)CCCCCC(P(=O)(O)O)P(=O)(O)O` [6-trimethylammoniohexyl-1,1-bisphosphonic acid], in experiment [1], the “efficiency of the compound (result in words)” value is on record as “particularly conclusive results”.
Regarding `CC(OCC(O)C[N+](C)(C)C)(P(=O)(O)O)P(=O)(O)O.[Cl-]` (stereo not shown) [TMADP, 2,2-diphosphono-5-hydroxy-3-oxa-6-hexyltrimethylammonium (TMADP) chloride], the contamination by proteins entry in experiment [2] (TMADP concentration 2.86×10^−4 mol.I-1, 10 minutes incubation of the plaque (stainless steel plate)) was “less than 10%”; in experiment [2] (TMADP concentration about 1.4×10^−4 mol.I-1, stainless steel plate), “about 15%”. In experiment [1], the “efficiency of the compound (result in words)” value is “particularly conclusive results”.
